Test results published in patent publication US20200207782A1, “CHEMICALLY ACTIVATED WATER-SOLUBLE PRODRUG” (SUMITOMO DAINIPPON PHARMA CO., LTD, priority 2017, published 2020).
“And” between values parts separate entries of the source, which are not always exact repeats. Equal entries are not always repeated. Structures can show the parent of a compound that is named as a salt.

Legend:
[1] = Solution stability test (residual ratio and generation of active form in buffers of pH 2.0 to 9.0); type: physicochemical; set-up: Rate of generation of active form after 24 hours in buffer with pH of 7.4: tested at 25 µM; conditions: for Residual ratio / Rate of generation of active form after 24 hours in buffer with pH of 7.4: 25° C.; for Residual ratio: 25 umol/L; for Degradation behaviour in buffers (in words): pH 2.0 to 9.0; for Rate of generation of active form after 24 hours in buffer with pH of 7.4: pH 7.4 buffer
Method: The test compounds were incubated at 25° C. at a concentration of 25 umol/L in a buffer prepared to have a pH of 2.0, 3.0, 5.0, 7.4, and 9.0. The compounds were measured by HPLC after 0, 3, 6, 9, 12, and 24 hours.
The buffers used at each pH are the following. • pH 2.0: 50 mmol/L glycine buffer • pH 3.0: 50 mmol/L citrate buffer • pH 5.0: 50 mmol/L citrate buffer • pH 7.4: 50 mmol/L phosphate buffer • pH 9.0: 50 mmol/L glycine buffer
The measurement conditions for HPLC are the following.
The yield of the Example and Reference Example compounds and active forms is calculated with each of the peak area of the Example and Reference Example compounds at 0 minutes and the peak area upon dissolution of the corresponding active form at 100 umol/L as 100%. The yield is denoted in terms of %

physchem = conditions: thermodynamic from solid; for solubility at 24 h: pH 2, aqueous buffer
Method: The solubility of the water-soluble prodrugs described in the Examples and the Reference Examples was measured. […] The filtrate was measured by HPLC.

| SMILES | Degradation behaviour in buffers (in words) [1] | Residual ratio ([1]; pH3.0 buffer, 0 hr) [%] | Residual ratio ([1]; pH3.0 buffer, 3 hr) [%] | Residual ratio ([1]; pH3.0 buffer, 6 hr) [%] | Residual ratio ([1]; pH3.0 buffer, 9 hr) [%] | Residual ratio ([1]; pH3.0 buffer, 12 hr) [%] | Residual ratio ([1]; pH3.0 buffer, 24 hr) [%] | Residual ratio ([1]; pH5.0 buffer, 0 hr) [%] | Residual ratio ([1]; pH5.0 buffer, 3 hr) [%] | Residual ratio ([1]; pH5.0 buffer, 6 hr) [%] | Residual ratio ([1]; pH5.0 buffer, 9 hr) [%] | Residual ratio ([1]; pH5.0 buffer, 12 hr) [%] | Residual ratio ([1]; pH7.4 buffer, 0 hr) [%] | Residual ratio ([1]; pH7.4 buffer, 3 hr) [%] | Residual ratio ([1]; pH7.4 buffer, 6 hr) [%] | Residual ratio ([1]; pH7.4 buffer, 9 hr) [%] | Residual ratio ([1]; pH7.4 buffer, 12 hr) [%] | Rate of generation of active form after 24 hours in buffer with pH of 7.4 [1] [%] | Stability in solution (in words) ([1]; pH of 2.0, 25° C.) | Stability in solution (in words) ([1]; pH of 3.0, 25° C.) | other results |
| --- | --- | --- | --- | --- | --- | --- | --- | --- | --- | --- | --- | --- | --- | --- | --- | --- | --- | --- | --- | --- | --- |
| CN1CC[C@H](c2c(OC(=O)N(C)CCN)cc(O)c3c(=O)cc(-c4ccccc4Cl)oc23)[C@H](O)C1 [Example 8, 2-(2-chlorophenyl)-5-hydroxy-8-[(3S,4R)-3-hydroxy-1-methylpiperidin-4-yl]-4-oxo-4H-chromen-7-yl (2-aminoethyl) methylcarbamate ditrifluoroacetate] | pH dependent and chemical degradation progressed | 100 | 100 | 100 | 100 | 100 | 100 | 100 | 98.2 | 96.1 | 94.4 | 92.4 | 76.4 | 0.1 | 0.0 | 0.1 | 0.2 | 88 | sufficient stability | sufficient stability | Residual ratio ([1]; pH2.0 buffer, 0 hr): 100%; Residual ratio ([1]; pH2.0 buffer, 3 hr): 100%; Residual ratio ([1]; pH2.0 buffer, 6 hr): 100%; Residual ratio ([1]; pH2.0 buffer, 9 hr): 100%; Residual ratio ([1]; pH2.0 buffer, 12 hr): 100%; Residual ratio ([1]; pH2.0 buffer, 24 hr): 100%; Residual ratio ([1]; pH5.0 buffer, 24 hr): 85% and 85.2%; Residual ratio ([1]; pH7.4 buffer, 24 hr): 0.5%; Residual ratio ([1]; pH9.0 buffer, 0 hr): 9.7%; Residual ratio ([1]; pH9.0 buffer, 3 hr): 0.2%; Residual ratio ([1]; pH9.0 buffer, 6 hr): 0.2%; Residual ratio ([1]; pH9.0 buffer, 9 hr): 0.1%; Residual ratio ([1]; pH9.0 buffer, 12 hr): 0.1%; Residual ratio ([1]; pH9.0 buffer, 24 hr): 0.0%; solubility (physchem; pH 5, aqueous buffer): > 10000 µg/mL |
| C[C@H]1COc2c1c(OC(=O)NCCNCC(=O)O)c(OC(=O)NCCNCC(=O)O)c1c3c(ccc21)C(C)(C)CCC3 [Example 12, 2,2′-{[(1R)-1,6,6-trimethyl-1,2,6,7,8,9-hexahydrophenanthro [1,2-b]furan-10,11-diyl]bis(oxycarbonylazanediylethane-2,1-diylazanediyl)}diacetic acid dihydrochloride] | pH dependent and chemical degradation progressed | 100 | 99.2 | 98.9 | 98.6 | 98.4 | 98.3 | 100 | 99.1 | 98.1 | 97.1 | 96.4 | 100 | 9.8 | 1.7 | 1.4 | 0 | 11 | stable | stable | Residual ratio ([1]; pH2.0 buffer, 0 hr): 100%; Residual ratio ([1]; pH2.0 buffer, 3 hr): 99.4%; Residual ratio ([1]; pH2.0 buffer, 6 hr): 98.9%; Residual ratio ([1]; pH2.0 buffer, 9 hr): 98.7%; Residual ratio ([1]; pH2.0 buffer, 12 hr): 98.5%; Residual ratio ([1]; pH2.0 buffer, 24 hr): 98.5%; Residual ratio ([1]; pH5.0 buffer, 24 hr, dihydrochloride): 93% and 93.3%; Residual ratio ([1]; pH7.4 buffer, 24 hr): 0%; solubility at 24 h (physchem): > 10000 µg/mL |
| C[C@H]1COc2c1c(OC(=O)NCCCNCC(=O)O)c(OC(=O)NCCCNCC(=O)O)c1c3c(ccc21)C(C)(C)CCC3 [Example 13, 2,2′-{[(1R)-1,6,6-trimethyl-1,2,6,7,8,9-hexahydrophenanthro[1,2-b]furan-10,11-diyl]bis(oxycarbonylazanediylpropane-3,1-diylazanediyl)}diacetic acid dihydrochloride] | pH dependent and chemical degradation progressed | 100 | 100 | 100 | 99.8 | 99.6 | 100 | 100 | 99.4 | 99.2 | 99.0 | 98.6 | 100 | 61.8 | 42.6 | 28.5 | 19.1 | 5 | stable | stable | Residual ratio ([1]; pH5.0 buffer, 24 hr): 98.4%; Residual ratio ([1]; pH7.4 buffer, 24 hr, dihydrochloride): 6% and 6.1%; Residual ratio ([1]; pH9.0 buffer, 0 hr): 100%; Residual ratio ([1]; pH9.0 buffer, 3 hr): 99.7%; Residual ratio ([1]; pH9.0 buffer, 6 hr): 99.4%; Residual ratio ([1]; pH9.0 buffer, 9 hr): 99.3%; Residual ratio ([1]; pH9.0 buffer, 12 hr): 99.1%; Residual ratio ([1]; pH9.0 buffer, 24 hr): 100%; Stability in solution (in words) ([1]; pH of 5.0, 25° C.): stable; solubility at 24 h (physchem): > 10000 µg/mL |
| CC(=O)c1cc2c(O)c3c(O)cccc3c(OC(=O)NCCCN)c2o1 [Reference Example 9, 2-Acetyl-4,5-dihydroxynaphtho[2,3-b]furan-9-yl(3-aminopropyl)carbamate hydrochloride] | pH dependent and chemical degradation progressed | 101 | 100 | 100 | 99.8 | 99.5 | 98.4 | 102 | 104 | 99.7 | 93.8 | 87.4 | 103 | 83.0 | 67.1 | 52.7 | 41.1 | 71 | sufficient stability | sufficient stability | Residual ratio ([1]; pH2.0 buffer, 0 hr): 100%; Residual ratio ([1]; pH2.0 buffer, 3 hr): 96.9%; Residual ratio ([1]; pH2.0 buffer, 6 hr): 92.9%; Residual ratio ([1]; pH2.0 buffer, 9 hr): 85.7%; Residual ratio ([1]; pH2.0 buffer, 12 hr): 85.2%; Residual ratio ([1]; pH5.0 buffer, 24 hr, hydrochloride): 67% and 67.1%; Residual ratio ([1]; pH7.4 buffer, 24 hr, hydrochloride): 26% and 25.5%; Residual ratio ([1]; pH9.0 buffer, 0 hr): 75.3%; Residual ratio ([1]; pH9.0 buffer, 3 hr): 13.7%; Residual ratio ([1]; pH9.0 buffer, 6 hr, hydrochloride): 0%; Residual ratio ([1]; pH9.0 buffer, 9 hr): 0.0%; Residual ratio ([1]; pH9.0 buffer, 12 hr): 0.0%; Residual ratio ([1]; pH9.0 buffer, 24 hr): 0.0%; solubility (physchem; pH 3, aqueous buffer): > 10000 µg/mL |
